Source: patent US20210347727A1 (BLADE THERAPEUTICS, INC., priority 2017, published 2021)
pIC50: −log10 of the molar value.

Key:
[1] = test system: calpain activity in SH-SY5Y cells (Spectrin); test: SH-SY5Y Spectrin cellular calpain inhibition; assay type: cell-based
[2] = biological target: T1, Human Calpain 9/NS1 (Homo sapiens, UniProt O14815); test: Biochemical inhibition of calpain 9, continuous fluorescence (FRET substrate) assay; conditions: mean; read-out: Human Calpain 9/NS1 IC50 (nM)_MEAN
T1 sequence (O14815 1-690): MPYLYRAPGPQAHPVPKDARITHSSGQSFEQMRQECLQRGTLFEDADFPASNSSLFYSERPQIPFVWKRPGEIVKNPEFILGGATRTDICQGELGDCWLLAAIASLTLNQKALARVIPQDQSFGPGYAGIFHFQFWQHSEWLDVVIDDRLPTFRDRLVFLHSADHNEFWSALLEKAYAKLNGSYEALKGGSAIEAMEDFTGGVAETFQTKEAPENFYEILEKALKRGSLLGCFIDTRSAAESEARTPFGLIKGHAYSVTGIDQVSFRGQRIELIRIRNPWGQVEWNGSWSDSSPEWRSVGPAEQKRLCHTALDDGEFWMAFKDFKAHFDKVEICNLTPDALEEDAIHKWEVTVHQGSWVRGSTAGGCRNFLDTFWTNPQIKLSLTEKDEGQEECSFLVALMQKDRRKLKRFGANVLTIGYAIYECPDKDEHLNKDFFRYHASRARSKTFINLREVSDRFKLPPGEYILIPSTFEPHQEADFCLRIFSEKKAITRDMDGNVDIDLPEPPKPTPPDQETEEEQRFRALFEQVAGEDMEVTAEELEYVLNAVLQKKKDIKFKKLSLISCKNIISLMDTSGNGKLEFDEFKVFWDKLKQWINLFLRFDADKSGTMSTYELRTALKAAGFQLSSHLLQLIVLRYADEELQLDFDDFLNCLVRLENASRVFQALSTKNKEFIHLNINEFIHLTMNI
T1 sequence (P04632 1-268 partner): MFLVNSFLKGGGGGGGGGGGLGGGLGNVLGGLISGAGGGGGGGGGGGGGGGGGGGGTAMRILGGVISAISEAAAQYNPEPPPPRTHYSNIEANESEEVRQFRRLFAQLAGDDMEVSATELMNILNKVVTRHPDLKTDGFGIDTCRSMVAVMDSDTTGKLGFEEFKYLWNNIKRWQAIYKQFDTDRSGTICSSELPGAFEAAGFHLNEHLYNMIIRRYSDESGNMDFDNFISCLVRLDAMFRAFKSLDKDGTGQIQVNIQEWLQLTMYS
Description: (§1) Calpain 1, 2, and 9 activity and inhibition thereof are assessed by means of a continuous fluorescence assay. The SensoLyte 520 Calpain substrate (Anaspec Inc) is optimized for detecting calpain activity. This substrate contains a novel internally quenched 5-FAM/QXL™ 520 FRET pair. Calpains 1, 2, and 9 cleave the FRET substrate into two separate fragments resulting in an increase of 5-FAM fluorescence that is proportional to calpain activity.
(§2) Assays are typically setup in black 384-well plates using automated liquid handling as follows. Calpain assay base buffer typically contains 50 mM Tris, pH 7.5, 100 mM NaCl and 1 mM DTT. Inhibitors are serially diluted in DMSO and used to setup 2× mixtures with calpains in the aforementioned buffer. After incubation at ambient temperature (25 C), the reaction is initiated by adding a 2× mix of the fluorescent peptide substrate and CaCl2 (required for in-situ calpain activation) in the same buffer. Reaction progress curve data are typically collected for 10 min using excitation/emission wavelengths of 490 nm/520 nm on SpectraMax i3x or the FLIPR-Tetra plate readers (Molecular Devices Inc). Reaction rates were calculated from progress curve slopes typically over 1-5 min. Dose response curves (rate vs. log inhibitor concentration) were typically fit to a 4-parameter logistic function to extract IC50 values.

[3] = test system: calpain activity in SH-SY5Y cells; test: SH-SY5Y cellular calpain activity, Suc-LLVY-AMC fluorescence assay; assay type: cell-based; conditions: Suc-LLVY-AMC substrate
Description: Calpain activity in SH-SY5Y cells and inhibition thereof were assessed by means of a homogeneous, fluorescence assay that uses the cell-permeable and pro-fluorescent calpain substrate Suc-LLVY-AMC (Sigma-Aldrich Inc). Upon intracellular calpain cleavage of Suc-LLVY-AMC, fluorescent amino-methyl-coumarin (AMC) is released into the media resulting in a continuous increase in fluorescence signal that is proportional to intra-cellular calpain activity.
Assays were typically setup by seeding SH-SY5Y cells in black 384-well plates at 40 k/per well in RPMI-1640 containing 1% serum followed by 37 C overnight incubation. Next morning, cells were pre-incubated for 30 min with serially diluted compounds followed by addition of 100 uM of Suc-LLVY-AMC substrate. The continuous increase in AMC fluorescence is monitored using a FLIPR, Tetra plate reader (Molecular Devices Inc) and slopes measured to report calpain activity. Dose response curves (slopes vs. log inhibitor concentration) were typically fit to a 4-parameter logistic function to extract IC50 values.

[4] = biological target: T2, Human Calpain 1/NS1 (Homo sapiens, UniProt P07384); test: Biochemical inhibition of calpain 1, continuous fluorescence (FRET substrate) assay; conditions: mean; read-out: Human Calpain 1/NS1 IC50 (nM)_MEAN
T2 sequence (P07384 1-714): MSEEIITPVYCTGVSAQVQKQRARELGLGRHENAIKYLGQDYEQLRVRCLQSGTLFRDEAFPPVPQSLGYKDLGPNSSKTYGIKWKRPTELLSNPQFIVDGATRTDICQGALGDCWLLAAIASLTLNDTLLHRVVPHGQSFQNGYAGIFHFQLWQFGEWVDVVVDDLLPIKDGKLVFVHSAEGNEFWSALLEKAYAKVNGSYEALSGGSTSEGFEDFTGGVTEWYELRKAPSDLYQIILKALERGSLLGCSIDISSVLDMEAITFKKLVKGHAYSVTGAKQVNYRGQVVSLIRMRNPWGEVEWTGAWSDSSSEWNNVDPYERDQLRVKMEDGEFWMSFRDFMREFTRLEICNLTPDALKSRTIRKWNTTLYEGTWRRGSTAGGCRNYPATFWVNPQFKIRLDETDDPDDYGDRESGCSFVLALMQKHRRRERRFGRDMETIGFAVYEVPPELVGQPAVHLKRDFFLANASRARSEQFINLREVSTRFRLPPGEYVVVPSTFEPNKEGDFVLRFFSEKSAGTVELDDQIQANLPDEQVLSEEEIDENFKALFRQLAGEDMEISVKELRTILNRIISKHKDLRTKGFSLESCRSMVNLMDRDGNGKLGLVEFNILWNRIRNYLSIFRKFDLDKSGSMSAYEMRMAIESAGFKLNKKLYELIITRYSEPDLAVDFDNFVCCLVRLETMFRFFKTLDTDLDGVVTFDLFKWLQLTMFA
T2 sequence (P04632 1-268 partner): T1 sequence (P04632 1-268 partner)
Description: as §1, §2

[5] = biological target: T3, Human Calpain 2/NS1 (Homo sapiens, UniProt P17655); test: Biochemical inhibition of calpain 2, continuous fluorescence (FRET substrate) assay; conditions: mean; read-out: Human Calpain 2/NS1 1C50 [sic] (nM)_MEAN
T3 sequence (P17655 1-700): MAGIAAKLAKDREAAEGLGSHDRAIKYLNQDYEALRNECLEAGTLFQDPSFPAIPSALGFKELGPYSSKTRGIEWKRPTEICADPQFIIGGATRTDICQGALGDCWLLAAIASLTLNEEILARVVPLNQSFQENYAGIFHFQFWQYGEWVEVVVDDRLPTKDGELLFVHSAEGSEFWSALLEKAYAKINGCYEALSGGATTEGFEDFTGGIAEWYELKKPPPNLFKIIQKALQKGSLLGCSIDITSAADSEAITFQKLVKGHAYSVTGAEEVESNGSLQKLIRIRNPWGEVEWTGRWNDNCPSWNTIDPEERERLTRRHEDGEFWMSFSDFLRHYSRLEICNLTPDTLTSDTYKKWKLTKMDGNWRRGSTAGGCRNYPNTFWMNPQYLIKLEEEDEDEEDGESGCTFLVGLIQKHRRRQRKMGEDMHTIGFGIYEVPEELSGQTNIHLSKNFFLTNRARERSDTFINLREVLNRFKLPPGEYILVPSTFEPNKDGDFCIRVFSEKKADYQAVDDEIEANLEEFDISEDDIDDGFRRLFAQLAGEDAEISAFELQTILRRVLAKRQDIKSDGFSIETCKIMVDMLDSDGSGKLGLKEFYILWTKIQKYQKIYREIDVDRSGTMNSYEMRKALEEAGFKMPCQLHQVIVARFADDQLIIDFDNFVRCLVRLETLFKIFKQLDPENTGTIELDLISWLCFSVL
T3 sequence (P04632 1-268 partner): T1 sequence (P04632 1-268 partner)
Description: as §1, §2

Compound | pIC50 [1] | IC50 [2] [nM] | pIC50 [3] | IC50 [4] [nM] | IC50 [5] [nM]
NC(=O)C(=O)[C@H](Cc1ccccc1)NC(=O)c1c(Cl)cccc1Cl [Compound 1, (S)—N-(4-AMINO-3,4-DIOXO-1-PHENYLBUTAN-2-YL)-2,6-DICHLOROBENZAMIDE] | 4.60 to 5.00 | < 3000 | < 4.60 | < 3000 | < 3000
NC(=O)C(=O)[C@H](Cc1ccccc1)NC(=O)c1c(F)cc(F)cc1F [Compound 3, (S)—N-(4-AMINO-3,4-DIOXO-1-PHENYLBUTAN-2-YL)-2,4,6-TRIFLUOROBENZAMIDE] | < 4.60 | < 3000 | 4.60 to 5.00 | < 3000 | < 3000
NC(=O)C(=O)C(Cc1ccccc1)NC(=O)c1cccc2c1Oc1ccccc1O2 (stereo not shown) [Compound 7, N-(4-AMINO-3,4-DIOXO-1-PHENYLBUTAN-2-YL)DIBENZO[b,e][1,4]DIOXINE-1-CARBOXAMIDE] | 4.60 to 5.00 | < 3000 | < 4.60 | < 3000 | < 3000
NC(=O)C(=O)C(Cc1ccccc1)NC(=O)c1cccc2c1oc1ccccc12 (stereo not shown) [Compound 9, N-(4-AMINO-3,4-DIOXO-1-PHENYLBUTAN-2-YL)DIBENZO[b,d]FURAN-4-CARBOXAMIDE] | < 4.60 | < 3000 | < 4.60 | < 3000 | < 3000
Cn1c2ccccc2c2c(C(=O)NC(Cc3ccccc3)C(=O)C(N)=O)cccc21 (stereo not shown) [Compound 11, N-(4-AMINO-3,4-DIOXO-1-PHENYLBUTAN-2-YL)-9-METHYL-9H-CARBAZOLE-4-CARBOXAMIDE] | 4.60 to 5.00 | < 3000 | > 5.00 | < 3000 | < 3000
Cn1c2ccccc2c2cccc(C(=O)NC(Cc3ccccc3)C(=O)C(N)=O)c21 (stereo not shown) [Compound 12] | < 4.60 | < 3000 | > 5.00 | < 3000 | < 3000
NC(=O)C(=O)C(Cc1ccccc1)NC(=O)c1c(Cl)ccc2ccccc12 (stereo not shown) [Compound 13, N-(4-AMINO-3,4-DIOXO-1-PHENYLBUTAN-2-YL)-2-CHLORO-1-NAPHTHAMIDE] | 4.60 to 5.00 | < 3000 | 4.60 to 5.00 | < 3000 | < 3000
NC(=O)C(=O)[C@H](Cc1ccccc1)NC(=O)c1c(Cl)cccc1Br [Compound 14, (S)—N-(4-AMINO-3,4-DIOXO-1-PHENYLBUTAN-2-YL)-2-BROMO-6-CHLOROBENZAMIDE] | 4.60 to 5.00 | < 3000 | > 5.00 | < 3000 | < 3000
NC(=O)C(=O)[C@H](Cc1ccccc1)NC(=O)c1c(F)cccc1F [Compound 15, (S)—N-(4-AMINO-3,4-DIOXO-1-PHENYLBUTAN-2-YL)-2,6-DIFLUOROBENZAMIDE] | 4.60 to 5.00 | < 3000 | 4.60 to 5.00 | < 3000 | < 3000
NC(=O)C(=O)[C@H](Cc1ccccc1)NC(=O)c1c(F)cccc1C(F)(F)F [Compound 16, (S)—N-(4-AMINO-3,4-DIOXO-1-PHENYLBUTAIN-2-YL)-2-FLUORO-6-(TRIFLUOROMETHYL)BENZAMIDE] | 4.60 to 5.00 | < 3000 | < 4.60 | < 3000 | < 3000
NC(=O)C(=O)[C@H](Cc1ccccc1)NC(=O)c1cc(Cl)ccc1Cl [Compound 22, (S)—N-(4-AMINO-3,4-DIOXO-1-PHENYLBUTAN-2-YL)-2,5-DICHLOROBENZAMIDE] | 4.60 to 5.00 | < 3000 | > 5.00 | < 3000 | < 3000
NC(=O)C(=O)C(Cc1ccccc1)NC(=O)c1ccc2c(c1)OCO2 (stereo not shown) [Compound 24, N-(4-AMINO-3,4-DIOXO-1-PHENYLBUTAN-2-YL)BENZO[d][1,3]DIOXOLE-5-CARBOXAMIDE] | < 4.60 | < 3000 |  | 3000 to 10000 | < 3000
NC(=O)C(=O)[C@H](Cc1ccccc1)NC(=O)c1c(F)cccc1I [Compound 27, (S)—N-(4-AMINO-3,4-DIOXO-1-PHENYLBUTAN-2-YL)-2-FLUORO-6-IODOBENZAMIDE] | 4.60 to 5.00 | < 3000 | > 5.00 | < 3000 | < 3000
NC(=O)C(=O)[C@H](Cc1ccccc1)NC(=O)c1ccc(F)cc1 [Compound 28, (S)—N-(4-AMINO-3,4-DIOXO-1-PHENYLBUTAN-2-YL)-4-FLUOROBENZAMIDE] | < 4.60 | 3000 to 10000 | > 5.00 | > 10000 | 3000 to 10000
O=CC(Cc1ccccc1)NC(=O)c1c(Cl)cccc1Br (stereo not shown) [Compound 41, 2-BROMO-6-CHLORO-N-(1-OXO-3-PHENYLPROPAN-2-YL)BENZAMIDE] | 4.60 to 5.00 | < 3000 |  | 3000 to 10000 | < 3000
